Among the data in patent US8080552B2, “Pyrimidyl derivatives as protein kinase inhibitors” (Hoffmann-LA Roche Inc., priority 2006, dated 2011) are IC50 values, retold here.

Usually IC50 stands for the point on the concentration scale where inhibition reaches its midpoint.

The test system of one assay is HCT 116 cells. As to the kind of experiment: CellTiter-Glo assay in HCT 116 cells. The assay is classed as cell-based. The note with it: 120 h; HCT 116 human colon carcinoma cells, 5 days incubation, cell viability (ATP luminescence). The source says:
CellTiter-Glo™ Assay in HCT 116 Cells:
The CellTiter-Glo™ Luminescent Cell Viability Assay (Promega) is a homogeneous method of determining the number of viable cells in culture based on quantitation of the ATP present, which signals the presence of metabolically active cells.
HCT 116 cells (human colon carcinoma, ATCC-No. CCl-247) were cultivated in RPMI 1640 medium with GlutaMAX™ I (Invitrogen, Cat-No. 61870-010), 5% Fetal Calf Serum (FCS, Sigma Cat-No. F4135 (FBS)); 100 Units/ml penicillin/100 μg/ml streptomycin (=Pen/Strep from Invitrogen Cat. No. 15140). For the assay the cells were seeded in 384 well plates, 1000 cells per well, in the same medium. The next day the test compounds were added in various concentrations ranging from 30 μM to 0.0015 μM (10 concentrations, 1:3 diluted). After 5 days the CellTiter-Glo™ assay was done according to the instructions of the manufacturer (CellTiter-Glo™ Luminescent Cell Viability Assay, from Promega). In brief: the cell-plate was equilibrated to room temperature for approximately 30 minutes and than the CellTiter-Glo™ reagent was added. The contents were carefully mixed for 15 minutes to induce cell lysis. After 45 minutes the luminescent signal was measured in Victor 2, (scanning multiwell spectrophotometer, Wallac).
• Medium: RPMI 1640 with GlutaMAX™ I (Invitrogen, Cat-Nr. 61870), 5% FCS (Sigma Cat.-No. F4135), Pen/Strep (Invitrogen, Cat No. 15140). • HCT116 (ATCC-No. CCl-247): 1000 cells in 60 μl per well of 384 well plate (Greiner 781098, μClear-plate white) • After seeding incubate plates 24 h at 37° C., 5% CO2 2nd. Day: Induction (Treatment with Compounds, 10 Concentrations):
In order to achieve a final concentration of 30 μM as highest concentration 3.5 μl of 10 mM compound stock solution were added directly to 163 μl media. Then step e) of the dilution procedure described below, was followed.

Another assay concerns VEGF-induced HUVEC cells. As to the kind of experiment: CellTiter-Glo assay in VEGF-induced HUVEC cells. In kind it is cell-based. The settings on record: Homo sapiens; Table 2; VEGF-induced (20 ng/ml) HUVEC cells, 72 hours, cell viability (ATP luminescence); read-out: IC50 HCT 116. The procedure:
CellTiter-Glo™ Assay in VEGF-Induced HUVEC Cells:
HUVEC-c (Human Umbilical Vein Endothelial Cells, from Promocell Cat-No. C-12200) cells were trypsinized, spinned down and plated in 384-well plates at 1500 cells per well in 60 μl endothelial basal medium (EBM-2 from Promocell, Cat-No. C-22211) with 0.5% Fetal Calf Serum (FCS, Sigma Cat-No. F4135 (FBS)). Cells were incubated overnight at 37° C., and the next day, test compounds (stock solution 140 μmol/l in medium with 4.2% dimethylsulfoxide (DMSO)) were added in 5 μl medium over a final concentration range of 10 μmol/l to 0.5 nmol/l and 0.3% DMSO. Compounds were tested in triplicates. After 2 hrs 5 μl VEGF (VEGF 165, R&D Systems, Cat-No. 293-VE-010, stock solution 280 ng/ml in medium) was added to a final concentration of 20 ng/ml. Cells were incubated for 72 hours at 37° C. in medium. Cell number was quantitated using CellTiter-Glo™ Luminescent Cell Viability Assay (from Promega) according to the instructions of the supplier. This assay measures the number of viable cells per well by measurement of luminescent signal based on amount of cellular ATP. IC50 are determined using a non-linear curve fit (XLfit software (ID Business Solution Ltd., Guilford, Surrey, UK)) (see also CellTiter-Glo™ assay in HCT 116 cells above).

Regarding `O=C(Nc1ccc(Oc2ccnc(NCCCO)n2)cc1)Nc1ccc2c(c1)OC(F)(F)O2` [Example 28, 1-(2,2-Difluoro-benzo[1,3]dioxol-5-yl)-3-{4-[2-(3-hydroxy-propylamino)-pyrimidin-4-yloxy]-phenyl}-urea], the IC50 with HCT 116 cells is 0.3 to 10 µM; with VEGF-induced HUVEC cells it was 0.082 µM.

In the case of `O=C(Nc1ccc(Oc2ccnc(NCCCO)n2)cc1)Nc1ccc(Cl)c(C(F)(F)F)c1` [Example 9, 1-(4-Chloro-3-trifluoromethylphenyl)-3-{4-[2-(3-Hydroxy-propylamino)-pyrimidin-4-yloxy]-phenyl}-urea], the half-inhibitory concentration (IC50) in the assay on HCT 116 cells was 3.99 µM; in the assay on VEGF-induced HUVEC cells it was 0.005 to 0.75 µM.

Regarding `O=C(Nc1ccc(Oc2cc(NCCO)ncn2)cc1)Nc1cccc(C(F)(F)F)c1` [Example 20, 1-{4-[6-(2-Hydroxy-ethylamino)-pyrimidin-4-yloxy]-phenyl}-3-(3-trifluoromethyl-phenyl)-urea], the IC50 in the assay on HCT 116 cells was 0.3 to 10 µM; in the assay on VEGF-induced HUVEC cells, 0.005 to 0.75 µM.
